Assays:
Format in all cases: in vivo
Digitaria ciliaris [1] = assay: Test Example 8: herbicidal effect test by stem and leaf treatment in upland field (low dose); conditions: Digitaria ciliaris; 7.5 g per 10 ares; sprayed seven days after sowing, upland soil; 14 days after application; read-out: weed inhibition rate
Echinochloa crus-galli [2] = assay: as above; conditions: Echinochloa crus-galli; 7.5 g per 10 ares; sprayed seven days after sowing, upland soil; 14 days after application; read-out: weed inhibition rate
[3] = test system: Echinochloa crus-galli var. formosensis; assay: Test Example 6: herbicidal effect test by application during growth period of paddy rice (low dose); conditions: Echinochloa crus-galli; 7.5 g per 10 ares; applied seven days after sowing, flooded pots; 14 days after application; read-out: weed inhibition rate
Procedure, shortened: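 Emulsifiable concentrate, water-diluted, dropped onto flooded paddy pots 7 days post-sowing at 7.5 g active ingredient/10 a. Greenhouse-grown weeds; percent inhibition scored at day 14 after treatment.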

[4] = test system: Echinochloa crus-galli var. formosensis; assay: Test Example 5: herbicidal effect test by soil application in paddy rice (low dose); conditions: Echinochloa crus-galli, soil, 336 h; 7.5 g per 10 ares; applied immediately after sowing, flooded pots; 14 days after application; read-out: weed inhibition rate
Procedure, shortened: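 7.5 g a.i./10 a applied by dropper into ~3 cm floodwater immediately post-sowing (seeds 0–1 cm, 30 per species; puddled fertilized paddy soil, glasshouse). Duplicates; day-14 inhibition %.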

Digitaria ciliaris [5] = assay: Test Example 3: herbicidal effect test by soil application in upland field; conditions: Digitaria ciliaris, 120 g per 10 ares, sprayed one day after sowing, 14 days after application, read-out: weed inhibition rate
Procedure, shortened: (§1)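 Weed inhibition (%) was assessed 14 days after treatment, in duplicate per concentration group. Seeds had been mixed into the upper 1 cm of upland alluvial loam, and the soil surface was sprayed one day later with the diluted emulsifiable concentrate at 120 g active ingredient per 10 ares.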

Echinochloa crus-galli [6] = assay: as above; conditions: Echinochloa crus-galli, 120 g per 10 ares, sprayed one day after sowing, 14 days after application, read-out: weed inhibition rate
Procedure, shortened: as §1

Scirpus juncoides [7] = assay: Test Example 2: herbicidal effect test by application during growth period of paddy rice; conditions: Schoenoplectiella juncoides; 120 g per 10 ares; applied seven days after sowing, flooded pots; 14 days after application; read-out: weed inhibition rate
Procedure, shortened: (§2)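 Greenhouse pots of flooded paddy soil, seeded shallowly with 30 seeds per weed, are treated on day 7 by dropper with diluted emulsifiable concentrate equal to 120 g a.i./10 a. Duplicate pots are scored for inhibition rate 14 days post-application.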

[8] = test system: Echinochloa crus-galli var. formosensis; assay: as above; conditions: Echinochloa crus-galli; 120 g per 10 ares; applied seven days after sowing, flooded pots; 14 days after application; read-out: weed inhibition rate
Procedure, shortened: as §2

Scirpus juncoides [9] = assay: Test Example 1: herbicidal effect test by soil application in paddy rice; conditions: Schoenoplectiella juncoides, soil, 336 h; 120 g active ingredient per 10 ares; applied immediately after sowing, flooded pots; 14 days after application; read-out: weed inhibition rate
Procedure, shortened: (§3)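 Pre-emergence paddy treatment: diluted emulsifiable concentrate applied by dropper at 120 g a.i./10 ares immediately after sowing. Seeds (30 per species, 0–1 cm deep) in fertilized, puddled paddy soil kept under ~3 cm flood in a glass greenhouse.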

[10] = test system: Echinochloa crus-galli var. formosensis; assay: as above; conditions: Echinochloa crus-galli, soil, 336 h; 120 g active ingredient per 10 ares; applied immediately after sowing, flooded pots; 14 days after application; read-out: weed inhibition rate
Procedure, shortened: as §3

Digitaria ciliaris [11] = assay: Test Example 7: herbicidal effect test by soil application in upland field (low dose); conditions: Digitaria ciliaris, 7.5 g per 10 ares, sprayed one day after sowing, 14 days after application, read-out: weed inhibition rate
Procedure, shortened: (§4)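 Duplicate pots of alluvial loam, seeds incorporated in the surface 1 cm. Soil surface sprayed 1 d after sowing (EC in water, 100 L/10 a; 7.5 g a.i./10 a). Endpoint: % inhibition, day 14.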

Echinochloa crus-galli [12] = assay: as above; conditions: Echinochloa crus-galli, 7.5 g per 10 ares, sprayed one day after sowing, 14 days after application, read-out: weed inhibition rate
Procedure, shortened: as §4

Echinochloa crus-galli [13] = assay: Test Example 4: herbicidal effect test by stem and leaf treatment in upland field; conditions: Echinochloa crus-galli; 120 g per 10 ares; sprayed seven days after sowing, upland soil; 14 days after application; read-out: weed inhibition rate
Digitaria ciliaris [14] = assay: as above; conditions: Digitaria ciliaris; 120 g per 10 ares; sprayed seven days after sowing, upland soil; 14 days after application; read-out: weed inhibition rate

CC(C)C12CC(OCc3ccccc3C#N)C(C)(CC1Cl)O2 (stereo not shown) [1-1304, 2-[(5-chloro-1-methyl-4-isopropyl-7-oxabicyclo[2.2.1]heptan-2-yl)oxymethyl]benzonitrile]
≥ 80%: inhibition at 75 g/ha (Digitaria ciliaris [1]) | inhibition at 75 g/ha (Echinochloa crus-galli [2]) | inhibition at 75 g/ha [3] | inhibition at 75 g/ha [4] | inhibition at 1200 g/ha (Digitaria ciliaris [5]) | inhibition at 1200 g/ha (Echinochloa crus-galli [6]) | inhibition at 1200 g/ha (Scirpus juncoides [7]) | inhibition at 1200 g/ha [8] | pest or weed control at 1200 g/ha (Scirpus juncoides [9]) | pest or weed control at 1200 g/ha [10] | inhibition at 75 g/ha (Digitaria ciliaris [11]) | inhibition at 75 g/ha (Echinochloa crus-galli [12]) | inhibition at 1200 g/ha (Echinochloa crus-galli [13]) | inhibition at 1200 g/ha (Digitaria ciliaris [14])

CC(C)C12CC(OCc3c(F)cccc3F)C(C)(CC1Cl)O2 (stereo not shown) [1-1313, 5-chloro-2-[(2,6-difluorophenyl)methoxy]-1-methyl-4-isopropyl-7-oxabicyclo[2.2.1]heptane]
≥ 80%: inhibition at 75 g/ha (Digitaria ciliaris [1]) | inhibition at 75 g/ha (Echinochloa crus-galli [2]) | inhibition at 75 g/ha [3] | inhibition at 75 g/ha [4] | inhibition at 1200 g/ha (Digitaria ciliaris [5]) | inhibition at 1200 g/ha (Echinochloa crus-galli [6]) | inhibition at 1200 g/ha (Scirpus juncoides [7]) | inhibition at 1200 g/ha [8] | pest or weed control at 1200 g/ha (Scirpus juncoides [9]) | pest or weed control at 1200 g/ha [10] | inhibition at 75 g/ha (Digitaria ciliaris [11]) | inhibition at 75 g/ha (Echinochloa crus-galli [12]) | inhibition at 1200 g/ha (Echinochloa crus-galli [13]) | inhibition at 1200 g/ha (Digitaria ciliaris [14])

CC(C)C12CC(OCc3c(Cl)cccc3Cl)C(C)(CC1Cl)O2 (stereo not shown) [1-1314, 5-chloro-2-[(2,6-dichlorophenyl)methoxy]-1-methyl-4-isopropyl-7-oxabicyclo[2.2.1]heptane]
≥ 80%: inhibition at 75 g/ha (Digitaria ciliaris [1]) | inhibition at 75 g/ha (Echinochloa crus-galli [2]) | inhibition at 75 g/ha [3] | inhibition at 75 g/ha [4] | inhibition at 1200 g/ha (Digitaria ciliaris [5]) | inhibition at 1200 g/ha (Echinochloa crus-galli [6]) | inhibition at 1200 g/ha (Scirpus juncoides [7]) | inhibition at 1200 g/ha [8] | pest or weed control at 1200 g/ha (Scirpus juncoides [9]) | pest or weed control at 1200 g/ha [10] | inhibition at 75 g/ha (Digitaria ciliaris [11]) | inhibition at 75 g/ha (Echinochloa crus-galli [12]) | inhibition at 1200 g/ha (Echinochloa crus-galli [13]) | inhibition at 1200 g/ha (Digitaria ciliaris [14])

CC(C)C12CC(OCc3c(F)cccc3Cl)C(C)(CC1Cl)O2 (stereo not shown) [1-1315, 5-chloro-2-[(2-chloro-6-fluorophenyl)methoxy]-1-methyl-4-isopropyl-7-oxabicyclo[2.2.1]heptane]
≥ 80%: inhibition at 75 g/ha (Digitaria ciliaris [1]) | inhibition at 75 g/ha (Echinochloa crus-galli [2]) | inhibition at 75 g/ha [3] | inhibition at 75 g/ha [4] | inhibition at 1200 g/ha (Digitaria ciliaris [5]) | inhibition at 1200 g/ha (Echinochloa crus-galli [6]) | inhibition at 1200 g/ha (Scirpus juncoides [7]) | inhibition at 1200 g/ha [8] | pest or weed control at 1200 g/ha (Scirpus juncoides [9]) | pest or weed control at 1200 g/ha [10] | inhibition at 75 g/ha (Digitaria ciliaris [11]) | inhibition at 75 g/ha (Echinochloa crus-galli [12]) | inhibition at 1200 g/ha (Echinochloa crus-galli [13]) | inhibition at 1200 g/ha (Digitaria ciliaris [14])

CC(C)C12CC(OCc3ccccn3)C(C)(CC1Cl)O2 (stereo not shown) [1-1320, 2-[(5-chloro-4-isopropyl-1-methyl-7-oxabicyclo[2.2.1]heptan-2-yl)oxymethyl]pyridine]
≥ 80%: inhibition at 75 g/ha (Digitaria ciliaris [1]) | inhibition at 75 g/ha (Echinochloa crus-galli [2]) | inhibition at 75 g/ha [3] | inhibition at 75 g/ha [4] | inhibition at 1200 g/ha (Digitaria ciliaris [5]) | inhibition at 1200 g/ha (Echinochloa crus-galli [6]) | inhibition at 1200 g/ha (Scirpus juncoides [7]) | inhibition at 1200 g/ha [8] | pest or weed control at 1200 g/ha (Scirpus juncoides [9]) | pest or weed control at 1200 g/ha [10] | inhibition at 75 g/ha (Digitaria ciliaris [11]) | inhibition at 75 g/ha (Echinochloa crus-galli [12]) | inhibition at 1200 g/ha (Echinochloa crus-galli [13]) | inhibition at 1200 g/ha (Digitaria ciliaris [14])
